No end group written: not given here.
Key:
miR-21 [1] = assay: Electrophoretic mobility shift assay (EMSA) with miR-21; format: binding; conditions: c(RNA)=3 μM; for dsRNA binding in EMSA (band shift): c(peptide)=6 μM, 15% native PAGE
Source text: With the desired peptides in hand, we first assessed their dsRNA-binding potential using an electrophoretic mobility shift assay (EMSA). Making use of non-denaturing conditions, EMSA allows to resolve biomolecular complexes by size and charge character.
WT33 was employed as comparative positive control for peptide binding while the double-stranded microRNA, miR-21, was chosen as a sample dsRNA target for this assay. Comprised of an 18 base pair (bp) duplex, miR-21 can accommodate the binding of two wt33 monomers, similar to siRNA duplexes. Under established EMSA conditions, miR-21 resolves as two bands, a lower band corresponding to both unbound single strands and a higher, more distinct band (ca. 20 bp) corresponding to the miR-21 duplex (FIG. 2a). […] With reference to wt33, the most prominent elevated band (ca. 30 bp) likely corresponds to a 1:1 peptide/dsRNA complex while the upper band may represent a higher order structure. The reduction in ds and ssRNA band intensity is likely a result of these binding events.
Additionally, EMSA experiments were performed where dsRNA was incubated with either peptide 1^∘∘1 or 2^∘∘2 in the presence or absence TCEP. […] Having verified the tuneable, dsRNA-binding abilities of our peptide dimers, their use a cellular siRNA delivery tools was confirmed.
Electrophoretic mobility shift assays (EMSA's) were performed using a Bio-Rad MiniProtean gel system paired with a direct current (DC) power source (PowerPac™ HC, BioRad). Typically, 6 μL solutions containing RNA (concentration=3 μM) and peptide (concentration=6 μM) were incubated for 1 h at RT in a binding buffer (1×TAE and 10% glycerol). For gels monitoring disulfide reduction, peptide/RNA solutions were incubated in increasing concentrations (concentration=6, 60 and 600 μM) of TCEP. After incubation, bound nucleic acid complexes were resolved using 15% and 10% non-denaturing polyacrylamide gels (acrylamide:bis-acrylamide (19:1) in 1×TAE) at 150 V or 120 V in running buffer (1×TAE) at 4° C. for 1.5 hours. […]

miR-21 [2] = assay: Stabilization Assay of miR-21 in fetal bovine serum; format: in vitro ADME; conditions: miR-21 9 μM, peptide 18 μM; for stabilizing effect on miR-21 in increasing FBS: 10 min at 37° C., FBS gradient
Protocol: The rapid degradation of RNA by nucleases in serum is one of the central challenges associated with the therapeutic use of RNA. Applicants were therefore interested whether peptide binding promotes RNA stability in serum. For this purpose, miR-21 was incubated with different concentrations of fetal bovine serum (FBS) at 37° C., followed by phenol/chloroform extraction and PAGE analysis (FIG. 14). […] Both is in line with their reduced affinity for miR-21 (FIGS. 12a and 12b). To investigate the time-dependence of RNA stability, a prolonged incubation of RNA in serum (27.5% FBS) was performed, and the remaining RNA visualized by native PAGE (FIG. 14d). Remarkably, even after 6 hours, miR-21 was still detectable in the presence of peptide 2^∘∘2, while in the absence of the peptide, RNA was fully degraded within 15 minutes in line with afore made observations. These findings highlight the potential of peptide 2^∘∘2 to strongly enhance the stability of dsRNA in serum.
RNA stabilization was investigated by incubation of peptide/RNA complexes with fetal bovine serum (FBS) (Thermo Fischer Scientific). Peptide/RNA complexes were formed as described above after which defined amounts of FBS were added (concentration(RNA)=9 μM, concentration(peptide)=18 μM, total volume 10 μL). For gradient stability assay FBS containing RNA solutions were incubated at 37° C. for 10 min and for time course analysis at room temperature with 27.5% FBS. After incubation, 10 μL of NaOAc (3 M), 1 μL Glycogen (Thermo Fischer Scientific), 1 μL Ribolock (Thermo Fischer Scientific) and ddH2O was added on ice to a total volume of 200 μL.
RNA was extracted twice with freshly prepared solution of phenol/chloroform (5:1, 2 mL). After ethanol precipitation (1 mL) of the aqueous phase RNA pallets were redissolved in 8 μL ddH2O and added 2 μL 6×BB and then loaded into a native PAGE gel and run with previously described conditions.

miR-21 [3] = assay: Thermal denaturation assay (CD, Tm determination) of miR-21/peptide complexes; format: binding; conditions: for melting temperature (Tm) of miR-21 co-incubated with peptide: equimolar c=2 μM, ellipticity at λ=267 nm, miR-21 alone 51° C.
Source text: A thermal denaturation assay was next used to further characterize the dsRNA binding abilities of our peptides. Typically employed in the study of nucleic acid complexes, thermal denaturation assays make use of the spectral changes resulting from complex unfolding as temperature is increased. Using circular dichroism (CD) spectroscopy as a readout, we measured the changes in ellipticity at λ=267 nm, the wavelength maxima associated with A-form dsRNA. In line with previous measurements, the mid-point of denaturation or melting temperature (Tm) associated with miR-21 is 51° C. (FIG. 2b and FIG. 2c). To assess the stability of peptide-dsRNA complexes, peptides were co-incubated with miR-21 at an equimolar concentration (c=2 μM) and measured analogously. […] Contrastingly, incubation with dimeric peptide 1^∘∘1 leads to a greater increase stabilization (Tm=56° C., FIG. 2b) which was also seen for peptide 2 (Tm=58° C., FIG. 2c). […] CD spectroscopy allows not only the measurement of thermal denaturation profiles but can also be used to compare the structural characteristics of biomolecular complexes. […]
Circular dichroism (CD) spectra were recorded with a Jasco J-1500 spectropolarimeter (Jasco) equipped with a programmable Peltier thermostat in a stoppered quartz cuvette (10 mm; Hellma). […] For each sample, 10 CD spectra were measured between 200 nm and 350 nm with continuous scan mode (1 mdeg sensitivity, 1.0 nm resolution, 1.0 nm bandwidth, 2 s integration time, 100 nm/min scan rate). […]
where θ=observed ellipticity/mdeg, c=DNA or RNA strand concentration/mol/L and l=path length/cm. Melting temperature (Tm) determination was conducted with the same instrumentation and sample preparation, where ellipticity (θ=267 nm) was measured by ramping the temperature from 15-90° C. […] Raw data were normalized as described above, and Tm-values were determined using the CDpal program before being plotted in Prism 5.0 (GraphPad).

miR-21 [4] = assay: Isothermal titration calorimetry (ITC); format: binding; conditions: for N-value (peptides per miR-21 duplex) / −TΔS (entropic penalty) / Kd: 30° C.; for Kd: 1×PBS
Protocol: To confirm RNA-binding, isothermal titration calorimetry (ITC) was used. […] For wt33 this is in line with applicants' previously reported observations.
Isothermal titration calorimetry (ITC) was conducted using a VP-ITC (MicroCal). Before measurement, annealed miR-21 and peptide samples were dissolved in 1×PBS and degassed using a ThermoVac and heated to 30° C. miR-21 (c=6-15 μM) was then transferred into the sample cell (1.8 mL) and peptides (c=86-305 μM) were transferred into the syringe (300 μL). 37 Injections per measurement were performed at 30° C. (8 μl injection volume, 3.2 s injection time, 180 s spacing, high feedback mode) with an initial delay of 60 s and a stirring speed of 310 rpm. Data were analyzed using the MicroCal LLC ITC software (Origin; OriginLab Corporation), the heat associated with each injection was calculated by integrating the area under the curve for each injection and then normalized to concentration. A ‘single set of identical binding sites’ model was used to fit the binding curves from which thermodynamic binding parameters (ΔG, ΔH, ΔS, N and Kd) were calculated.

HEK293 cells = assay: Confocal microscopy of Cy5-siRNA uptake in HEK cells; format: cell-based; conditions: HEK293, Cy5-siRNA 1 μM
Protocol: For that purpose, a 21 nt long siRNA comprised of a 19 bp stem and equipped with the far-red fluorescent label, cyanine 5 (Cy5) to monitor RNA internalization (Cy5-siRNA, FIG. 7a) was employed. Initially, HEK293 cells were incubated with Cy5-siRNA (c=1 μM, 37° C., 1 h) before being imaged by confocal fluorescence microscopy. […] To assess the tunability of this effect, Cy5-siRNA/1^∘∘1 or Cy5-siRNA/2^∘∘2 complexes were also pre-treated with the reducing agent dithiothreitol (DTT) in order to promote complex disassembly.
HEK cells were seeded at a density of 40000 cells per well on an 8 well micro-slide (Ibidi), one day before the experiment. They were cultured in DMEM (Thermofisher Scientific), supplemented with 10% Fetal Calf Serum (FCS, PAN Biotech) and glutamax (Life technologies). Before starting the experiment, the peptides and Cy5-labelled siRNA were incubated at a peptide/siRNA ratio of 2:1 (6 μM-3 μM) for 1 h. In case for dithiothreitol (DTT) supplemented experiments, DTT was added to a concentration of 20 mM. The samples were diluted to a final siRNA concentration of 1 μM in serum free DMEM. Cells were washed 1× to remove FCS, and incubated in the siRNA:peptide solution for 1 hour at 37° C. After incubation, cells were washed with the phenol-red free DMEM with HEPES, and imaged. […]

RNA hairpins (HP 1-5) = assay: EMSA with RNA hairpins (HP 1-5); format: binding; conditions: HP 1-5 c=1 μM, peptide c=4 μM
Protocol: The binding of 2^∘∘2 to a set of five ds RNA hairpins, composed of different, complementary 19 base pair stems bridged via a fixed 6 nucleotide loop (FIG. 8a).
Electrophoretic mobility shift assays (EMSA's) were performed using a Bio-Rad MiniProtean gel system paired with a direct current (DC) power source (PowerPac™ HC, BioRad). […] For gels monitoring disulfide reduction, peptide/RNA solutions were incubated in increasing concentrations (concentration=6, 60 and 600 μM) of TCEP. After incubation, bound nucleic acid complexes were resolved using 15% and 10% non-denaturing polyacrylamide gels (acrylamide:bis-acrylamide (19:1) in 1×TAE) at 150 V or 120 V in running buffer (1×TAE) at 4° C. for 1.5 hours. For nucleic acid visualization, gels were stained using 2 μL of SYBR™ gold nucleic acid gel dye (Invitrogen) in 20 mL of 1×TAE buffer for 15 minutes at RT before being imaged using a Bio-Rad ChemiDoc.

Substance | dsRNA binding in EMSA (band shift) (miR-21 [1]) | stabilizing effect on miR-21 in increasing FBS (miR-21 [2]) | melting temperature (Tm) of miR-21 co-incubated with peptide (miR-21 [3]) | N-value (peptides per miR-21 duplex) (miR-21 [4]) | −TΔS (entropic penalty) (miR-21 [4]) | Kd (miR-21 [4]) | EMSA of dsRNA/peptide complex with increasing TCEP (miR-21 [1]; c(ligand)=6 μM, c(TCEP)=6, 60 and 600 μM) | cellular uptake of Cy5-siRNA co-incubated with peptide (fluorescence) (HEK293 cells; 37° C., 1 h, versus Cy5-siRNA alone) | cellular uptake of Cy5-siRNA/peptide complex pre-treated with DTT (HEK293 cells; DTT pre-treatment (20 mM)) | binding to RNA hairpins in EMSA (RNA hairpins (HP 1-5)) | time miR-21 still detectable in serum in presence of peptide (miR-21 [2]; 27.5% FBS, room temperature, without peptide fully degraded within 15 minutes) | ΔTm, lowering of melting temperature of dsRNA complex by TCEP (miR-21 [3]; excess reducing agent, 1 mM TCEP vs no TCEP) | fold higher affinity than wt33 (miR-21 [4]; Kd ratio versus wt33)
Ac-KKQAQRKRHKLNRKERGHKSPSEQRRSELWHAR (SEQ ID NO 19); 33-amino acid TAV2b RNA-binding peptide without dimerization motif, comparative positive control [wt33, reference compound] | smeared elevated band (ca. 50 bp), corresponding to a 2:1, peptide/dsRNA complex | considerably smaller | 58 °C | 1.91 | 9.3 kcal/mol | 328 nM | – | – | – | – | – | – | –
N-terminal disulfide (S-S) homodimer of stapled XβNQKKQAQRKRHKS5NRKS5R (SEQ ID NO 23) [peptide 2^∘∘2] | comparable band is also observed | residual RNA levels at 20% FBS to be comparable to those at 1% FBS in the absence of peptide | 60 °C | 1.89 | 5.7 kcal/mol | 31.7 nM | partial disassembly or unlocking of the dsRNA-peptide complex | increase in fluorescence intensity | decrease cellular fluorescence intensities | showed binding to each hairpin | ≥ 6 h | 4 °C | 10 fold
